# Experimental data reported in patent US11541050B2, “Pyrimidine derivatives for the treatment of viral infections” (JANSSEN SCIENCES IRELAND UC, priority 2011, dated 2023).
# Tests used:
# [1] = target: T1, human TLR7 (wild type sequence) (Homo sapiens, UniProt Q9NYK1); assay: TLR7 cellular NFκB-luc reporter assay, wild type TLR7; format: cell-based; parameters: unit not given here; details: lowest effective concentration, wild type TLR7 (compounds 74 onward)
# T1 construct: expressed in transfected cells; host or cells: HEK293
# T1 sequence (Q9NYK1 27-1049): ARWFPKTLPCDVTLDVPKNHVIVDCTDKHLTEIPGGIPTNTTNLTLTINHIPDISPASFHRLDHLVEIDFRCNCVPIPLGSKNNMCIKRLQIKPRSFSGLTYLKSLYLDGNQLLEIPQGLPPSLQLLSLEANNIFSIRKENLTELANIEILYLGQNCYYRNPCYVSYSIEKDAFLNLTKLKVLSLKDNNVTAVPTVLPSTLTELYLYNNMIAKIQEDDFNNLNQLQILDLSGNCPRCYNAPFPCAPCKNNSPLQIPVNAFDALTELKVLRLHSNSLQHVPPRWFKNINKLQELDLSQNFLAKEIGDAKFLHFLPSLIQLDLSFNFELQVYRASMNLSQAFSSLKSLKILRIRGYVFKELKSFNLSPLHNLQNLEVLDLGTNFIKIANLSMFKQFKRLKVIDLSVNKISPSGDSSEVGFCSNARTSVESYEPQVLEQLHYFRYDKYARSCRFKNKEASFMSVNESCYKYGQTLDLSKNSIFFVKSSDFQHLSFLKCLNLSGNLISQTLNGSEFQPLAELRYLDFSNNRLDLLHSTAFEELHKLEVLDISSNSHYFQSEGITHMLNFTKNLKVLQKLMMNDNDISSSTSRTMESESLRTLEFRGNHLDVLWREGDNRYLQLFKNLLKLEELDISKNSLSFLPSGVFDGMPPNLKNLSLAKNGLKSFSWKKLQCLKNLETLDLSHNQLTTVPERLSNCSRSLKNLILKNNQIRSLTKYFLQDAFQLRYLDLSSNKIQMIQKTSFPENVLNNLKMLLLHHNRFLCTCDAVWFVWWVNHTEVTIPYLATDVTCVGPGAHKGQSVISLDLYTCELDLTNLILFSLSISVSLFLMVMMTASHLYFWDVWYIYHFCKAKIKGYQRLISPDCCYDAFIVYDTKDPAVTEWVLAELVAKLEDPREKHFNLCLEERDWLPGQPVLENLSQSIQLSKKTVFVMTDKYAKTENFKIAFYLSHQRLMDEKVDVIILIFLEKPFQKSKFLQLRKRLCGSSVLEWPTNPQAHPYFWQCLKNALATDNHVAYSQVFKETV
# Method: (§1) The ability of compounds to activate human TLR7 and/or TLR8 was assessed in a cellular reporter assay using HEK293 cells transiently transfected with a TLR7 or TLR8 expression vector and NFκB-luc reporter construct. In one instance the TLR expression construct expresses the respective wild type sequence or a mutant sequence comprising a deletion in the second leucine-rich repeat of the TLR.
# (§2) Briefly, HEK293 cells were grown in culture medium (DMEM supplemented with 10% FCS and 2 mM Glutamine). For transfection of cells in 10 cm dishes, cells were detached with Trypsin-EDTA, transfected with a mix of CMV-TLR7 or TLR8 plasmid (750 ng), NFκB-luc plasmid (375 ng) and a transfection reagent and incubated for 48 hours at 37° C. in a humidified 5% CO2 atmosphere. Transfected cells were then detached with Trypsin-EDTA, washed in PBS and resuspended in medium to a density of 1.67×10^5 cells/mL. Thirty microliters of cells were then dispensed into each well in 384-well plates, where 10 μL of compound in 4% DMSO was already present. Following 6 hours incubation at 37° C., 5% CO2, the luciferase activity was determined by adding 15 μl of Steady Lite Plus substrate (Perkin Elmer) to each well and readout performed on a ViewLux ultraHTS microplate imager (Perkin Elmer). Dose response curves were generated from measurements performed in quadruplicates. Lowest effective concentrations (LEC) values, defined as the concentration that induces an effect which is at least two fold above the standard deviation of the assay, were determined for each compound.
# [2] = system: HCV replicon in Huh-7 luc/neo cells; assay: Suppression of HCV replicon replication by conditioned media from compound-treated PBMC; format: cell-based, HCV type 1 b; details: Hepatitis C virus; conditioned media from compound-treated PBMC on Huh-7 luc/neo replicon cells (compounds 74 onward); read-out: PBMC HUH-7 EC50
# Method: Activation of human TLR7 results in robust production of interferon by plasmacytoid dendritic cells present in human blood. The potential of compounds to induce interferon was evaluated by looking at the antiviral activity in the HCV replicon system upon incubation with conditioned media from peripheral blood mononuclear cells (PBMC). […] The assay utilized the stably transfected cell line Huh-7 luc/neo harboring an RNA encoding a bicistronic expression construct comprising the wild type NS3-NS5B regions of HCV type 1 b translated from an Internal Ribosome Entry Site (IRES) from encephalomyocarditis virus (EMCV), preceded by a reporter gene (Firefly-luciferase) and a selectable marker gene (neoR, neomycine phosphotransferase). The construct is flanked by 5′ and 3′ NTRs (non-translated regions) from HCV type 1 b. Continued culture of the replicon cells in the presence of G418 (neoR) is dependent on the replication of the HCV RNA. The stably transfected replicon cells that replicate HCV RNA autonomously and to high levels, encoding inter alia luciferase, were used for profiling of the conditioned cell culture media.
# Briefly, PBMCs were prepared from buffy coats of at least two donors using a standard Ficoll centrifugation protocol. Isolated PBMCs were resuspended in RPMI medium supplemented with 10% human AB serum and 2×10^5 cells/well were dispensed into 384-well plates containing compounds (70 μL total volume). After overnight incubation, 10 μL of supernatant was transferred to 384-well plates containing 2.2×10^3 replicon cells/well in 30 μL (plated the day before). Following 24 hours of incubation, replication was measured by assaying luciferase activity using 40 μL/well Steady Lite Plus substrate (Perkin Elmer) and measured with ViewLux ultraHTS microplate imager (Perkin Elmer). […] Recombinant interferon α-2a (Roferon-A) was used as a standard control compound.
# [3] = target: T2, human TLR8 (wild type sequence) (Homo sapiens, UniProt Q9NR97); assay: TLR8 cellular NFκB-luc reporter assay, wild type TLR8; format: cell-based; parameters: unit not given here; details: lowest effective concentration, wild type TLR8 (compounds 74 onward)
# T2 construct: expressed in transfected cells; host or cells: HEK293
# T2 sequence (Q9NR97 27-1041): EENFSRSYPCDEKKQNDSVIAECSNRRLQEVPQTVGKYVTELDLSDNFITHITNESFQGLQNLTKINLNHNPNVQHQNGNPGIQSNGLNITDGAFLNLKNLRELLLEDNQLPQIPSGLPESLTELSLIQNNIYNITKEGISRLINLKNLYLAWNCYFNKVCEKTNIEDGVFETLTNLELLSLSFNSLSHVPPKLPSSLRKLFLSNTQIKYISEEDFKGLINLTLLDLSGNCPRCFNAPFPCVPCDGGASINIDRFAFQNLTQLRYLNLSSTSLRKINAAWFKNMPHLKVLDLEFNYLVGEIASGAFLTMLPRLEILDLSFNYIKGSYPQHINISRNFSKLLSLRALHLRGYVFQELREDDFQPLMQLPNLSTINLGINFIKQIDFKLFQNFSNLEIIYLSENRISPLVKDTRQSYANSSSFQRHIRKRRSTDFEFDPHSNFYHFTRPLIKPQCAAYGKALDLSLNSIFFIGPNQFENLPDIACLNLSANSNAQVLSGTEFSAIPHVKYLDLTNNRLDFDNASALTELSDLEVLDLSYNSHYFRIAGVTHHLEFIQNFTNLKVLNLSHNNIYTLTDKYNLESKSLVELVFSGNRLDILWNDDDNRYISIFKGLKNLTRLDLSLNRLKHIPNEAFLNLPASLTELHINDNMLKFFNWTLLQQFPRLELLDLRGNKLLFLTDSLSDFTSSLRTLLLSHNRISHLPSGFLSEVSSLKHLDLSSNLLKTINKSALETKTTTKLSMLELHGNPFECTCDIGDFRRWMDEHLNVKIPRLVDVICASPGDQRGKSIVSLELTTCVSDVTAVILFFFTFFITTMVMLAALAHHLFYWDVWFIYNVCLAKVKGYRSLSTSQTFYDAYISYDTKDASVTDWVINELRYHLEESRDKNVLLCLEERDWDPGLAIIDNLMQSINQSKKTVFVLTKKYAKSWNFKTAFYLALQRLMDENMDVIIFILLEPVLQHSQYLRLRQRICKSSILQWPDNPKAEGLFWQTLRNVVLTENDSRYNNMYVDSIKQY
# Method: as §1, §2
Structure (SMILES),TLR 7 wt LEC [1],EC50 [2] [nM],TLR 8 wt LEC [3]
CCCCNc1nc(N)ncc1OCc1cc(OC2Cc3ccccc3C2)c(OC)cn1 [Compound 172],0.187,45,2.000
CCCCNc1nc(N)ncc1OCCCc1ccc(OC)cc1OC [Compound 163],0.573,728,2.500
CCCCNc1nc(N)ncc1OCc1cc2c(cn1)[nH]c1ccccc12 [Compound 159],0.159,18,1.080
CCCCNc1nc(N)ncc1OCc1cncn1[C@H](C)c1ccccc1 [Compound 102],0.141,12,5.690
CCCCNc1nc(N)ncc1OCCOc1ccc(C#N)cc1 [Compound 126],1.000,264,1.020
CCCCNc1nc(N)ncc1OCCn1ccc(=O)c2ccc(OC)cc21 [Compound 144],13.010,1320,20.790
CCC[C@@H](CO)Nc1nc(N)ncc1OCc1nccc2ccccc12 [Compound 195],0.003,3,0.056
CCCCCNc1nc(N)nc(C)c1OCc1ccccc1 [Compound 124],15.610,> 23800,13.650
CCCCNc1nc(N)ncc1OCc1cc(-c2ccco2)on1 [Compound 116],0.652,66,1.610
CCCCNc1nc(N)ncc1OCCOc1cc(OC)c(OC)c(OC)c1 [Compound 133],1.500,585,3.090
CCCCNc1nc(N)ncc1OCc1cccc2cccnc12 [Compound 184],0.157,53,1.650
CCCCNc1nc(N)ncc1O[C@H](C)c1ccccc1 [Compound 98],>25,22000,10.100
CCCCNc1nc(N)ncc1OCCCc1cccc(OC)c1OC [Compound 150],1.180,689,4.310
CCCC(CCC)Nc1nc(N)ncc1OCCCc1ccccc1 [Compound 114],2.020,2000,>25
CCCCNc1nc(N)ncc1OCCCc1cc(OC)ccc1OC [Compound 148],0.691,634,4.850
CCCC(C)Nc1nc(N)nc(C)c1OCc1ccccc1 (stereo not drawn) [Compound 168],>25,11700,14.900
CCCCNc1nc(N)ncc1OCc1cc(C)n(C)n1 [Compound 117],0.335,88,1.120
CCCCNc1nc(N)ncc1OCc1cc(OC)ccn1 [Compound 171],0.396,158,1.060
CCCCNc1nc(N)ncc1OCc1ccc(C(F)(F)F)nc1 [Compound 121],0.797,272,3.020
CCCCNc1nc(N)ncc1OCCOc1ccc(C(F)(F)F)cc1 [Compound 135],3.230,3190,1.970
CCCCNc1nc(N)ncc1OCCCc1ccc(OC)c(OC)c1OC [Compound 164],0.606,769,23.030
CCCCNc1nc(N)ncc1OCc1cccc2c1OCCCO2 [Compound 138],1.040,570,1.050
CCCCNc1nc(N)ncc1OCCCc1ccc(F)cc1F [Compound 107],2.460,1590,3.940
CCCC(COC)Nc1nc(N)ncc1OC (stereo not drawn) [Compound 106],16.100,3150,5.940
CCCCNc1nc(N)ncc1OCCOc1ccc(C(=O)OC)c(OC)c1 [Compound 134],2.010,935,2.110
